Results taken from patent publication US8426412B2, “2-alkynyl-6-pyridin-2-yl-pyridazinones, 2-alkynyl-6-pyridin-2-yl-dihydropyridazinones, 2-alkynyl-6-pyrimidin-2-yl-pyridazinones and 2-alkynyl-6-pyrimidin-2-yl-dihydropyridazinones and their use as fungicides” (Dow AgroSciences, LLC., priority 2008, dated 2013).
In brackets after ≈: the same amount, converted by molar mass. Where two headings read alike, the source gives them in different places.

Legend:
[1] = target: T1, microsomal Δ-9 fatty acid desaturase (Saccharomyces cerevisiae, UniProt P21147); test: Inhibition of Δ-9 fatty acid desaturase (desaturation of 14C-palmitoyl-CoA to 14C-palmitoleic acid); conditions: I50, concentration inhibiting production of palmitoleic acid by 50%; yeast microsomes, 30° C., 5 min
T1 sequence (P21147 1-510): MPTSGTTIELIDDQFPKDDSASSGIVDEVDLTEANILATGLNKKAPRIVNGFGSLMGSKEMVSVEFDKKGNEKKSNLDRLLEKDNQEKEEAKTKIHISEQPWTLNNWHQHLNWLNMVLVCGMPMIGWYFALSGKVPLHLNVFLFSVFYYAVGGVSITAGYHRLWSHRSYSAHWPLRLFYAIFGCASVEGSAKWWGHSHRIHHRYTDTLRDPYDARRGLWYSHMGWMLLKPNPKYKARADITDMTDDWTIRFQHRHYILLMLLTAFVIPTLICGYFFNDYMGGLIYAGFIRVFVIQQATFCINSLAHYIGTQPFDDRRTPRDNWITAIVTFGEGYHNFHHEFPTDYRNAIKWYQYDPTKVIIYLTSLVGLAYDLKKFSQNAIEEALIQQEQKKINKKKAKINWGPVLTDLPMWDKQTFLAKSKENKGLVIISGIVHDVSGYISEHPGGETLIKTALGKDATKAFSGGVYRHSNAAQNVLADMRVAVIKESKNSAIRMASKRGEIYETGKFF

[2] = system: Colletotrichum lagenarium (COLLLA); test: Activity towards plant pathogenic fungi, growth inhibition in microtiter plates; type: cell-based; conditions: Colletotrichum orbiculare, 72 h, read-out: EC50 COLLLA
[3] = system: Pyricularia oryzae (PYRIOR); test: microbe, parasite or virus in culture; type: cell-based; conditions: 72 h, read-out: EC50 PYRIOR
Candida albicans = test: microbe, parasite or virus in culture; type: cell-based
[4] = 50% inhibition of growth, 25° C., NepheloStar plate reader

## CCC#CCn1nc(-c2ccc(Cl)c(Cl)n2)ccc1=O [drawing 85]
[1]
  IC50: 263 nM

## CCC#CCn1nc(-c2ccc(F)c(F)n2)ccc1=O
[2]; [4]
  EC50: 0.181 µg/mL (≈ 0.658 µM)
[3]
  EC50: 0.163 µg/mL (≈ 0.592 µM)

## CCCCCOCC#CCn1nc(-c2ccc(Cl)cn2)ccc1=O [drawing 72]
[1]
  IC50: 23.1 nM

## CCC#CCN1N=C(c2cccc(Cl)n2)CCC1=O [drawing 103]
[2]; [4]
  EC50: 3.4 µg/mL (≈ 12.3 µM)
[3]
  EC50: 1.01 µg/mL (≈ 3.66 µM)

## CCC#CCn1nc(-c2ccc(Cl)cn2)ccc1=O [drawing 118]
Candida albicans
  EC50: 0.210 µg/mL (≈ 0.767 µM)

## CCCCCCCOCC#CCn1nc(-c2ccc(Cl)cn2)ccc1=O [drawing 80]
[1]
  IC50: 72.2 nM

## CCC#CCn1nc(-c2ncc(Cl)cc2Cl)ccc1=O [drawing 89]
[1]
  IC50: > 130000 nM

## CCC#CCn1nc(-c2ncc(Cl)cc2Cl)ccc1=O [drawing 111]
[2]; [4]
  EC50: 13.6 µg/mL (≈ 44.1 µM)
[3]
  EC50: 4.42 µg/mL (≈ 14.3 µM)

## CCCCCOCC#CCn1nc(-c2ccc(Cl)cn2)ccc1=O [drawing 98]
[2]; [4]
  EC50: 0.007 µg/mL (≈ 0.0202 µM)
[3]
  EC50: 0.192 µg/mL (≈ 0.555 µM)

## CCC#CCN1N=C(c2cccc(Cl)n2)CCC1=O [drawing 83]
[1]
  IC50: > 145000 nM

## CCC#CCn1nc(-c2ccc(Cl)c(F)n2)ccc1=O [drawing 92]
[1]
  IC50: 99.4 nM

## CCC#CCn1nc(-c2ccc(Br)cn2)ccc1=O
[1]
  IC50: < 123 nM

## CCC#CCN1N=C(c2ccc(Cl)cn2)CCC1=O
[2]; [4]
  EC50: 0.194 µg/mL (≈ 0.704 µM)
[3]
  EC50: 0.021 µg/mL (≈ 0.0762 µM)

## CCC#CCN1N=C(c2ncc(Cl)cc2Cl)CCC1=O [drawing 110]
[2]; [4]
  EC50: 8 µg/mL (≈ 25.8 µM)
[3]
  EC50: 3.47 µg/mL (≈ 11.2 µM)

## CCCCCOCC#CCn1nc(-c2ccc(Cl)cn2)ccc1=O [drawing 117]
Candida albicans; Candida albicans, 48 h
  EC50: 0.176 µg/mL (≈ 0.509 µM)

## CCCCOCCC#CCn1nc(-c2ccc(Cl)cn2)ccc1=O
[1]
  IC50: 52 nM

## CCCCCCCC#CCn1nc(-c2ccc(Cl)cn2)ccc1=O
[1]
  IC50: 78.5 nM

## CCC#CCN1N=C(c2ncc(Cl)cc2Cl)CCC1=O [drawing 88]
[1]
  IC50: > 129000 nM

## CCCOCCOCC#CCn1nc(-c2ccc(Cl)cn2)ccc1=O
[1]
  IC50: 108 nM

## CCC#CCn1nc(-c2ncccc2Cl)ccc1=O [drawing 109]
[2]; [4]
  EC50: > 40 µg/mL
[3]
  EC50: > 40 µg/mL

## CCC(C)CCOCC#CCn1nc(-c2ccc(Cl)cn2)ccc1=O (stereo not shown) [drawing 100]
[2]; [4]
  EC50: 1.16 µg/mL (≈ 3.22 µM)
[3]
  EC50: 0.284 µg/mL (≈ 0.789 µM)

## CCC#CCn1nc(-c2ncc(Br)cn2)ccc1=O
[1]
  IC50: 3790 nM

## CCC#CCN1N=C(c2cc(Cl)ccn2)CCC1=O
[2]; [4]
  EC50: 5.75 µg/mL (≈ 20.9 µM)
[3]
  EC50: 5.52 µg/mL (≈ 20 µM)

## CC(C)(C)C#C/C=C/Cn1nc(-c2ccc(Cl)cn2)ccc1=O [drawing 112]
[2]; [4]
  EC50: > 40 µg/mL
[3]
  EC50: 8.11 µg/mL (≈ 24.7 µM)

## CCC#CCn1nc(-c2cccc(Cl)n2)ccc1=O [drawing 84]
[1]
  IC50: 61400 nM

## CCCCCCCC#CCn1nc(-c2ncc(Br)cn2)ccc1=O
[1]
  IC50: 87.3 nM

## CCCCCCCOCC#CCn1nc(-c2ccc(Cl)cn2)ccc1=O [drawing 76]
[1]
  IC50: 45.5 nM

## CCC#CCN1N=C(c2ccc(Cl)c(Cl)n2)CCC1=O
[2]; [4]
  EC50: 0.036 µg/mL (≈ 0.116 µM)
[3]
  EC50: 0.031 µg/mL (≈ 0.0999 µM)

## CCCCOCCOCC#CCn1nc(-c2ccc(Cl)cn2)ccc1=O [drawing 99]
[2]; [4]
  EC50: 0.033 µg/mL (≈ 0.0878 µM)
[3]
  EC50: 0.05 µg/mL (≈ 0.133 µM)

## CCCCOCC#CCn1nc(-c2ccc(Cl)cn2)ccc1=O
[1]
  IC50: 27.1 nM

## CC(C)(C)C#C/C=C/Cn1nc(-c2ccc(Cl)cn2)ccc1=O [drawing 90]
[1]
  IC50: > 122000 nM

## CCC#CCn1nc(-c2ccc(Cl)cn2)ccc1=O [drawing 70]
[1]
  IC50: 121 nM

## CCC#CCN1N=C(c2nc(Cl)c(Cl)cc2Cl)CCC1=O [drawing 91]
[1]
  IC50: > 116000 nM

## C=CC#CCn1nc(-c2ccc(Cl)cn2)ccc1=O
[1]
  IC50: 58.9 nM

## CCCOCCCC#CCn1nc(-c2ccc(Cl)cn2)ccc1=O
[1]
  IC50: 28.9 nM

## CCC#CCn1nc(-c2ccc(C(F)(F)F)cn2)ccc1=O
[2]; [4]
  EC50: 0.758 µg/mL (≈ 2.47 µM)
[3]
  EC50: 0.674 µg/mL (≈ 2.19 µM)

## O=c1ccc(-c2ccc(Cl)cn2)nn1CC#CC1CC1 [drawing 82]
[1]
  IC50: 472 nM

## CCC#CCn1nc(-c2ccc(Cl)c(F)n2)ccc1=O [drawing 114]
[2]; [4]
  EC50: 0.048 µg/mL (≈ 0.165 µM)
[3]
  EC50: 0.0236 µg/mL (≈ 0.0809 µM)

## CCC#CCn1nc(-c2cccc(Cl)n2)ccc1=O [drawing 105]
[2]; [4]
  EC50: 1 µg/mL (≈ 3.65 µM)
[3]
  EC50: 1.4 µg/mL (≈ 5.11 µM)

## CCCCOCCOCC#CCn1nc(-c2ccc(Cl)cn2)ccc1=O [drawing 77]
[1]
  IC50: 176 nM

## CCC#CCn1nc(-c2ccc(Cl)cn2)ccc1=O [drawing 96]
[2]; [4]
  EC50: 0.113 µg/mL (≈ 0.413 µM)
[3]
  EC50: 0.0474 µg/mL (≈ 0.173 µM)

## CCC(C)CCOCC#CCn1nc(-c2ccc(Cl)cn2)ccc1=O (stereo not shown) [drawing 79]
[1]
  IC50: 422 nM

## CCC#CCN1N=C(c2ncccc2Cl)CCC1=O [drawing 108]
[2]; [4]
  EC50: > 40 µg/mL
[3]
  EC50: 33 µg/mL (≈ 120 µM)

## CCC#CCN1N=C(c2ncccc2Cl)CCC1=O [drawing 86]
[1]
  IC50: > 145000 nM

## CCC#CCn1nc(-c2ccc(Cl)c(Cl)n2)ccc1=O [drawing 106]
[2]; [4]
  EC50: 0.0537 µg/mL (≈ 0.174 µM)
[3]
  EC50: 0.0371 µg/mL (≈ 0.12 µM)

## CCC#CCn1nc(-c2ncccc2Cl)ccc1=O [drawing 87]
[1]
  IC50: > 146000 nM

## O=c1ccc(-c2ccc(Cl)cn2)nn1CC#CC1CC1 [drawing 101]
[2]; [4]
  EC50: 0.092 µg/mL (≈ 0.322 µM)
[3]
  EC50: 0.062 µg/mL (≈ 0.217 µM)

## CCCCCCOCC#CCn1nc(-c2ncc(Br)cn2)ccc1=O
[1]
  IC50: 39.5 nM

## CCC#CCN1N=C(c2nc(Cl)c(Cl)cc2Cl)CCC1=O [drawing 113]
[2]
  EC50: 8.71 µg/mL (≈ 25.3 µM)
[3]
  EC50: 5.75 µg/mL (≈ 16.7 µM)

## CCC#CCn1nc(-c2ccc(Cl)cn2)ccc1=O [drawing 116]
Candida albicans
  EC50: 0.091 µg/mL (≈ 0.332 µM)
